This is an account of results in PMC4363092 (Journal of medicinal chemistry, 2014).

The target of series [1] is T1, human NPP1 (Homo sapiens, UniProt P22413).
T1 sequence (P22413 1-925): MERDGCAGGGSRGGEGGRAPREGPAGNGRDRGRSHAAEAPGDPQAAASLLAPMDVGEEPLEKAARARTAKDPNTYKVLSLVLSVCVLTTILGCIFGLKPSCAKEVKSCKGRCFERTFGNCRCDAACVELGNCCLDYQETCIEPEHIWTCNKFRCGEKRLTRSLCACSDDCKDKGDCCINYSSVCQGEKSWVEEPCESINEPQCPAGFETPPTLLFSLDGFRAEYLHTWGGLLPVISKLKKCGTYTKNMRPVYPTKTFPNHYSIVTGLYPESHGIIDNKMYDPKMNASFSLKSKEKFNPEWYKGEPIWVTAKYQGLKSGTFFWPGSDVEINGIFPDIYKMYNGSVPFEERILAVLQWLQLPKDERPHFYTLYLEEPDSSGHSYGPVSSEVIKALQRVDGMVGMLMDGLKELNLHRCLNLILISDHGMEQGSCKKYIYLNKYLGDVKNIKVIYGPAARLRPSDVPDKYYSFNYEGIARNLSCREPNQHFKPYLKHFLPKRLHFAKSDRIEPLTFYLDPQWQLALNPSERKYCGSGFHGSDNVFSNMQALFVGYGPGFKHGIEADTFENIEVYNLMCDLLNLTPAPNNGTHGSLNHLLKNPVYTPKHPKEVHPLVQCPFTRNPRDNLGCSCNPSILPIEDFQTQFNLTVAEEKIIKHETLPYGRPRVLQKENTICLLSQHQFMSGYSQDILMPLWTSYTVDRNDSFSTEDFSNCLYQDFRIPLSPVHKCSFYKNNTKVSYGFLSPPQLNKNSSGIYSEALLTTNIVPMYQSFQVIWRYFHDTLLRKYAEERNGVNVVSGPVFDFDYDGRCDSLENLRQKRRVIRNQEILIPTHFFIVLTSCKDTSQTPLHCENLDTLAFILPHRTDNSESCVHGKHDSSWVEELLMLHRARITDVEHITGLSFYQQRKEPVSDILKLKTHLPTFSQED
Kind of series: Inhibition of NPP1, ATP as substrate. Type of series: biochemical. The conditions noted are these: analogue 100 μM, ATP 100 μM.

The target in the next series is T2, TNAP (Homo sapiens, UniProt P05186).
T2 sequence (P05186 18-502 limits assumed): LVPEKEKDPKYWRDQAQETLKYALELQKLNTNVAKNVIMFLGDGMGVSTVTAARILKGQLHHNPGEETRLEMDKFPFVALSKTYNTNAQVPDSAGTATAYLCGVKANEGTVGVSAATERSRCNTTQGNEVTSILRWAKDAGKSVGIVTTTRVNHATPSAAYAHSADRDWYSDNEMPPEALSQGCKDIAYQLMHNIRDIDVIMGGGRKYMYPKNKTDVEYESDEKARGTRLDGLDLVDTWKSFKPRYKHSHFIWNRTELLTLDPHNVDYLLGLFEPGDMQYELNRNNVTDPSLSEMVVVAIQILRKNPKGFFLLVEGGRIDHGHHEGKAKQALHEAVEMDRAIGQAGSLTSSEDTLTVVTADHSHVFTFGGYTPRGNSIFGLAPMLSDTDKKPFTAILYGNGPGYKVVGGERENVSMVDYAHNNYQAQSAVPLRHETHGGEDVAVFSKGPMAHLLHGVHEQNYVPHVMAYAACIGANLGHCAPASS
Kind of series: TNAP stability assay: hydrolysis by TNAP. In kind it is in vitro ADME. The conditions noted are these: 1 h, pH 9, 100 μM (data not shown).

A further series addresses T3, human NTPDase3 (Homo sapiens, UniProt O75355).
T3 sequence (O75355 1-529): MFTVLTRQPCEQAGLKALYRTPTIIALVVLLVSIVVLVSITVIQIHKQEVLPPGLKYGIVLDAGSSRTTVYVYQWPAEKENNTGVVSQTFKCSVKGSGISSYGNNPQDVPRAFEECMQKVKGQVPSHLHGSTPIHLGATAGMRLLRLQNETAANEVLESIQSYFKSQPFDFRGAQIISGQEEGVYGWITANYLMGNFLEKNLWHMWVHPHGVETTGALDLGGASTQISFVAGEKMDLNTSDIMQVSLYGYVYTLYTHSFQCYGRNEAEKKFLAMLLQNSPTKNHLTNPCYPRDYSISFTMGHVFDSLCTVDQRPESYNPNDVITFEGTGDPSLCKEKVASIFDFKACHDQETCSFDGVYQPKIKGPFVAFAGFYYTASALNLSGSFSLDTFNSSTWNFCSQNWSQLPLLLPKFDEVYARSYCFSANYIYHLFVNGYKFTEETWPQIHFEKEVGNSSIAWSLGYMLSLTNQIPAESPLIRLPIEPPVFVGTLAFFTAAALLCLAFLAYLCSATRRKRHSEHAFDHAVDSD
The conditions noted are these: analogue 100 μM as substrate; activity with 100 μM ATP set as 100%.

Another series concerns the target T4, human NTPDase1 (Homo sapiens, UniProt P49961).
T4 sequence (P49961 1-510): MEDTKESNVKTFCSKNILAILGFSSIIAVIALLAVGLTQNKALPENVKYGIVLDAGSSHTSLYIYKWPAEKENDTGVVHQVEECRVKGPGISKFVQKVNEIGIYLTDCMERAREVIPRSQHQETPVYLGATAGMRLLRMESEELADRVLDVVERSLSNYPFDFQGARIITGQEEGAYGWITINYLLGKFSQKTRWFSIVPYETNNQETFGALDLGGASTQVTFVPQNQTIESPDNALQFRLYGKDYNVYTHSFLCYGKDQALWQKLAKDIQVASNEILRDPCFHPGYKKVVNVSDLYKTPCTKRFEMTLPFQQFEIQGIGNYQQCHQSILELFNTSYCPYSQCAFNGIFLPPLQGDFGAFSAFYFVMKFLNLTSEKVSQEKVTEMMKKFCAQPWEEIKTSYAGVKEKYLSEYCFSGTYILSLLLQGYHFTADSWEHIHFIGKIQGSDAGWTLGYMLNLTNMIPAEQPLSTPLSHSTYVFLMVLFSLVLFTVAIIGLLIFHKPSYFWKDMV
The conditions noted are these: analogue 100 μM as substrate; activity with 100 μM ATP set as 100%.

Another series concerns the target P2Y2 receptor (Homo sapiens, UniProt P41231). Kind of series: [Ca2+]i response in 1321N1 astrocytoma cells expressing GFP-P2Y2 receptor. In kind it is cell-based. The conditions noted are these: for agonist activity at P2Y2R: 100 μM; for inhibition of the typical response to UTP at P2Y2R: 1321N1 cells (data not shown).
Series [2] concerns the target T1, human NPP1. Put plainly: Inhibition of NPP1, pNP-TMP as substrate. Type of series: biochemical. The conditions noted are these: Dixon and Cornish–Bowden methods.

Chain of P2Y2 receptor (P41231 whole entry): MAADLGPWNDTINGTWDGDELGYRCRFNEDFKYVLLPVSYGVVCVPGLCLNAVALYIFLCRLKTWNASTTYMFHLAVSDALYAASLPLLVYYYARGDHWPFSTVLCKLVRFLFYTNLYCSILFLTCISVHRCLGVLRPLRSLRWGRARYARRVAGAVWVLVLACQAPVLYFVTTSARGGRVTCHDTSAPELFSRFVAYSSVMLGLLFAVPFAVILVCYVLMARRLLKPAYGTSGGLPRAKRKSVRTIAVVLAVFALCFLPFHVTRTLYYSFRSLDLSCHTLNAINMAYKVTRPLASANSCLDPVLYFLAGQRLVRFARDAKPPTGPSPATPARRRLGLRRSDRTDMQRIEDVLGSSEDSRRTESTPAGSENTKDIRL

As to `Nc1ncnc2c1ncn2[C@@H]1O[C@H](CO[P@](O)(=S)OP(=O)(O)C(Cl)(Cl)P(=O)(O)O)[C@@H](O)[C@H]1O` [2a], the “inhibition of ATP hydrolysis by NPP1” value on human NPP1 [1] is listed as “about 90%”. In addition, the “hydrolysis by TNAP” value at TNAP is given as “fully stable”. Further, the “relative activity (%) ± SD of ATP hydrolysis, NTPDase3” value at human NTPDase3 amounted to 5.2 ± 0.2%. The “relative activity (%) ± SD of ATP hydrolysis, NTPDase1” value on human NTPDase1 came out at 5.3 ± 0.2%. On P2Y2 receptor, the “agonist activity at P2Y2R” value was “no activity” and the “inhibition of the typical response to UTP at P2Y2R” value is given as “did not inhibit”. For the same compound, the type of inhibition result on human NPP1 [2] was “mixed-type inhibition, predominantly competitive”.

With `Nc1ncnc2c1ncn2[C@@H]1O[C@H](COP(=O)(O)CP(=O)(O)OP(O)(O)=S)[C@@H](O)[C@H]1O` [compound 3], the “inhibition of ATP hydrolysis by NPP1” value on human NPP1 [1] was “about 90%”. In addition, on TNAP, the “hydrolysis by TNAP” value is on record as 2.5%. For the same compound, at human NTPDase3, the “relative activity (%) ± SD of ATP hydrolysis, NTPDase3” value was determined as 4.8 ± 0.2%. Also, the “relative activity (%) ± SD of ATP hydrolysis, NTPDase1” value at human NTPDase1 amounted to 5.3 ± 0.2%. For the same compound, at P2Y2 receptor, the “agonist activity at P2Y2R” value is on record as “no activity” and the “inhibition of the typical response to UTP at P2Y2R” value is recorded as “did not inhibit”. In addition, the type of inhibition entry at human NPP1 [2] was “mixed-type inhibition, predominantly competitive”.
